Laboratory results taken from PubChem BioAssay AID248 (DTP/NCI, 2004).
“And” between values parts separate entries of the source, which are not always exact repeats. Equal entries are not always repeated. Inconclusive results and toxic doses are left out.

Test system: L1210 leukemia ip in BDF1 mice, survival T/C
Test: NCI In Vivo Anticancer Drug Screen. Data for tumor model L1210 Leukemia (intraperitoneal) in B6D2F1 (BDF1) mice
Details: endpoint: mean survival time, higher = longer survival
Outline: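 Tumor was transplanted into mice, which were then dosed with test compound or vehicle alone. Survival was recorded for each group, and the treated figure was expressed relative to the control figure.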

[1] = dose: 50.0 mg/kg/injection, schedule: Q01DX009 (ip), vehicle: saline
[2] = dose: 100.0 mg/kg/injection, schedule: Q01DX009 (ip), vehicle: saline
[3] = dose: 200.0 mg/kg/injection, schedule: Q01DX009 (ip), vehicle: saline
[4] = dose: 100.0 mg/kg/injection, schedule: Q01DX009 (ip), vehicle: saline with Tween-80
[5] = dose: 200.0 mg/kg/injection, schedule: Q01DX009 (ip), vehicle: saline with Tween-80
[6] = dose: 50.0 mg/kg/injection, schedule: Q01DX001 (ip), vehicle: carboxymethylcellulose (CMC)
[7] = dose: 100.0 mg/kg/injection, schedule: Q01DX001 (ip), vehicle: carboxymethylcellulose (CMC)
[8] = dose: 200.0 mg/kg/injection, schedule: Q01DX001 (ip), vehicle: carboxymethylcellulose (CMC)
[9] = dose: 400.0 mg/kg/injection, schedule: Q01DX001 (ip), vehicle: carboxymethylcellulose (CMC)
[10] = dose: 100.0 mg/kg/injection, schedule: Q01DX001 (ip), vehicle: saline
[11] = dose: 200.0 mg/kg/injection, schedule: Q01DX001 (ip), vehicle: saline
[12] = dose: 200.0 mg/kg/injection, schedule: Q01DX009 (ip), vehicle: Klucel (hydroxypropylcellulose) (HPC)
[13] = dose: 100.0 mg/kg/injection, schedule: Q01DX001 (ip), vehicle: Klucel (hydroxypropylcellulose) (HPC)
[14] = dose: 100.0 mg/kg/injection, schedule: Q04DX003 (ip), vehicle: saline with Tween-80
[15] = dose: 200.0 mg/kg/injection, schedule: Q04DX003 (ip), vehicle: saline with Tween-80
[16] = dose: 12.5 mg/kg/injection, schedule: Q01DX009 (ip), vehicle: saline
[17] = dose: 100.0 mg/kg/injection, schedule: Q04DX003 (ip), vehicle: Klucel (hydroxypropylcellulose) (HPC)
[18] = dose: 200.0 mg/kg/injection, schedule: Q04DX003 (ip), vehicle: Klucel (hydroxypropylcellulose) (HPC)
[19] = dose: 50.0 mg/kg/injection, schedule: Q04DX003 (ip), vehicle: Klucel (hydroxypropylcellulose) (HPC)

## Nc1nc2ncc(=O)[nH]c2c(=O)[nH]1
[1]
  T/C: 106 % of control
dose: 50.0 mg/kg/injection, schedule: Q04DX003 (ip), vehicle: saline
  T/C: 103 % of control
[2]
  T/C: 101 % of control
dose: 100.0 mg/kg/injection, schedule: Q04DX003 (ip), vehicle: saline
  T/C: 100 % of control
[3]
  T/C: 87 % of control
dose: 200.0 mg/kg/injection, schedule: Q04DX003 (ip), vehicle: saline
  T/C: 106 % of control
dose: 400.0 mg/kg/injection, schedule: Q04DX003 (ip), vehicle: saline
  T/C: 122 % of control

## CCCC(C(=O)O)C(CCC)C(=O)O (centres undefined)
[4]
  T/C: 92 % of control
[5]
  T/C: 96 % of control

## CCOC(=O)C(C#N)C(CC)(CC)C1CCCCC1 (centres undefined)
[6]
  T/C: 102 % of control
[7]
  T/C: 102 % of control
[8]
  T/C: 96 % of control
[9]
  T/C: 113 % of control

## O=C1OCCC12CCCCC21OCCO1 (centres undefined)
[10]
  T/C: 101 % of control
[11]
  T/C: 104 % of control
dose: 400.0 mg/kg/injection, schedule: Q01DX001 (ip), vehicle: saline
  T/C: 98 % of control

## COc1cc2c(c(OC)c1OC)-c1ccc(SC)c(=O)cc1C(N(C)C)CC2 (centres undefined)
[12]
  T/C: 93 % of control

## COc1ccc(/C=C2N=C(/C=C/c3ccccc3)OC\2=O)cc1OC
dose: 100.0 mg/kg/injection, schedule: Q04DX002 (ip), vehicle: gum acacia
  T/C: 88 % of control
dose: 200.0 mg/kg/injection, schedule: Q04DX002 (ip), vehicle: gum acacia
  T/C: 95 % of control
dose: 400.0 mg/kg/injection, schedule: Q04DX002 (ip), vehicle: gum acacia
  T/C: 88 % of control

## COC(=O)C(c1ccccc1)C1(O)CCN(CC2COc3ccccc3O2)CC1 (centres undefined)
dose: 25.0 mg/kg/injection, schedule: Q01DX001 (ip), vehicle: Klucel (hydroxypropylcellulose) (HPC)
  T/C: 96 % of control
dose: 50.0 mg/kg/injection, schedule: Q01DX001 (ip), vehicle: Klucel (hydroxypropylcellulose) (HPC)
  T/C: 93 % of control
[13]
  T/C: 97 % of control and 102 % of control

## Oc1cccc2cccnc12
[7]
  T/C: 100 % of control
[9]
  T/C: 96 % of control

## CCCCOC(=O)C1OC1(C)c1ccc(C)cc1 (centres undefined)
[4]
  T/C: 103 % of control
[5]
  T/C: 113 % of control
dose: 400.0 mg/kg/injection, schedule: Q01DX009 (ip), vehicle: saline with Tween-80
  T/C: 100 % of control

## Nc1c(C(=O)O)ccc2c1C(=O)c1ccccc1C2=O
dose: 25.0 mg/kg/injection, schedule: Q04DX003 (ip), vehicle: gum acacia
  T/C: 103 % of control
dose: 50.0 mg/kg/injection, schedule: Q04DX003 (ip), vehicle: gum acacia
  T/C: 100 % of control
dose: 100.0 mg/kg/injection, schedule: Q04DX003 (ip), vehicle: gum acacia
  T/C: 103 % of control and 108 % of control
dose: 200.0 mg/kg/injection, schedule: Q04DX003 (ip), vehicle: gum acacia
  T/C: 97 % of control

## CC/C=C(\C)C1(C(C)C)C(=O)NC(=O)NC1=O
dose: 75.0 mg/kg/injection, schedule: Q01DX001 (ip), vehicle: carboxymethylcellulose (CMC)
  T/C: 105 % of control

## CC(=O)OCC(OC(C)=O)C(OC(C)=O)C(OC(C)=O)C(COC(C)=O)OC(C)=O (centres undefined)
[14]
  T/C: 97 % of control
[15]
  T/C: 93 % of control
dose: 400.0 mg/kg/injection, schedule: Q04DX003 (ip), vehicle: saline with Tween-80
  T/C: 98 % of control

## CC(C)CCCC(C)C1CCC2C3=CC=C4CC(OC(=O)c5cc([N+](=O)[O-])cc([N+](=O)[O-])c5)CCC4(C)C3CCC21C (centres undefined)
dose: 100.0 mg/kg/injection, schedule: Q01DX001 (ip), vehicle: other
  T/C: 88 % of control
dose: 200.0 mg/kg/injection, schedule: Q01DX001 (ip), vehicle: other
  T/C: 98 % of control

## CCCCCCNC(C)=O
[16]
  T/C: 92 % of control
dose: 25.0 mg/kg/injection, schedule: Q01DX009 (ip), vehicle: saline
  T/C: 118 % of control
[1]
  T/C: 97 % of control and 90 % of control
[2]
  T/C: 90 % of control
[14]
  T/C: 95 % of control
[3]
  T/C: 97 % of control
[15]
  T/C: 87 % of control

## C[N+]1(C)N=C(c2ccccc2)C=C1[O-]
dose: 100.0 mg/kg/injection, schedule: Q04DX002 (ip), vehicle: other
  T/C: 111 % of control
dose: 200.0 mg/kg/injection, schedule: Q04DX002 (ip), vehicle: other
  T/C: 106 % of control
dose: 400.0 mg/kg/injection, schedule: Q04DX002 (ip), vehicle: other
  T/C: 100 % of control

## c1ccc(N2CCNCC2)cc1 (tested in a mixture with another compound)
dose: 5.0 mg/kg/injection, schedule: Q01DX001 (ip), vehicle: saline
  T/C: 105 % of control and 101 % of control and 97 % of control
dose: 10.0 mg/kg/injection, schedule: Q01DX001 (ip), vehicle: saline
  T/C: 105 % of control and 97 % of control
dose: 20.0 mg/kg/injection, schedule: Q01DX001 (ip), vehicle: saline
  T/C: 105 % of control and 94 % of control and 95 % of control
dose: 40.0 mg/kg/injection, schedule: Q01DX001 (ip), vehicle: saline
  T/C: 102 % of control and 100 % of control
dose: 80.0 mg/kg/injection, schedule: Q01DX001 (ip), vehicle: saline
  T/C: 100 % of control
[10]
  T/C: 98 % of control
[11]
  T/C: 96 % of control

## O=C(Nc1nccs1)Nc1ccccc1Cl
dose: 100.0 mg/kg/injection, schedule: Q01DX009 (ip), vehicle: Klucel (hydroxypropylcellulose) (HPC)
  T/C: 96 % of control
dose: 100.0 mg/kg/injection, schedule: Q04DX002 (ip), vehicle: Klucel (hydroxypropylcellulose) (HPC)
  T/C: 91 % of control
[12]
  T/C: 91 % of control
dose: 200.0 mg/kg/injection, schedule: Q04DX002 (ip), vehicle: Klucel (hydroxypropylcellulose) (HPC)
  T/C: 98 % of control
dose: 400.0 mg/kg/injection, schedule: Q01DX009 (ip), vehicle: Klucel (hydroxypropylcellulose) (HPC)
  T/C: 96 % of control
dose: 400.0 mg/kg/injection, schedule: Q04DX002 (ip), vehicle: Klucel (hydroxypropylcellulose) (HPC)
  T/C: 107 % of control

## Cc1ccc(Oc2ccc(C(=O)O)cc2)cc1
[17]
  T/C: 96 % of control
[18]
  T/C: 102 % of control
dose: 400.0 mg/kg/injection, schedule: Q04DX003 (ip), vehicle: Klucel (hydroxypropylcellulose) (HPC)
  T/C: 103 % of control

## Cn1c(N)c(N=Cc2ccc(C=Nc3c(N)n(C)c(=O)n(C)c3=O)cc2)c(=O)n(C)c1=O
[6]
  T/C: 88 % of control
[8]
  T/C: 96 % of control
[9]
  T/C: 90 % of control

## CC1(C)N=C(N)N=C(N)N1c1ccc(CNC(=O)Nc2cccc(S(=O)(=O)F)c2)cc1
dose: 6.25 mg/kg/injection, schedule: Q01DX009 (ip), vehicle: saline
  T/C: 116 % of control
[16]
  T/C: 119 % of control
[1]
  T/C: 154 % of control
dose: 88.0 mg/kg/injection, schedule: Q04DX003 (ip), vehicle: saline
  T/C: 113 % of control

## CC12C=CC3(CCC4C(C)(C)C(O[N+](=O)[O-])C(=O)CC4(C)C3CC1=O)C2 (centres undefined)
dose: 75.0 mg/kg/injection, schedule: Q01DX009 (ip), vehicle: Klucel (hydroxypropylcellulose) (HPC)
  T/C: 108 % of control
[13]
  T/C: 92 % of control
dose: 150.0 mg/kg/injection, schedule: Q01DX009 (ip), vehicle: Klucel (hydroxypropylcellulose) (HPC)
  T/C: 100 % of control
dose: 200.0 mg/kg/injection, schedule: Q01DX001 (ip), vehicle: Klucel (hydroxypropylcellulose) (HPC)
  T/C: 95 % of control
dose: 300.0 mg/kg/injection, schedule: Q01DX009 (ip), vehicle: Klucel (hydroxypropylcellulose) (HPC)
  T/C: 98 % of control
dose: 400.0 mg/kg/injection, schedule: Q01DX001 (ip), vehicle: Klucel (hydroxypropylcellulose) (HPC)
  T/C: 88 % of control

## CCOC(=O)C1C(=O)NC(C(=O)OCC)(C(=O)OCC)C1C(C)C (centres undefined)
[19]
  T/C: 96 % of control
[17]
  T/C: 100 % of control
[18]
  T/C: 96 % of control

## c1ccc(C2=C(c3ccccc3)NC(c3ccccc3)N2)cc1
dose: 12.5 mg/kg/injection, schedule: Q04DX003 (ip), vehicle: Klucel (hydroxypropylcellulose) (HPC)
  T/C: 102 % of control
dose: 25.0 mg/kg/injection, schedule: Q04DX003 (ip), vehicle: Klucel (hydroxypropylcellulose) (HPC)
  T/C: 100 % of control
[19]
  T/C: 98 % of control
[17]
  T/C: 96 % of control
